Key:
Format in all cases: in vivo
[1] = system: blackgrass (Alopecurus myosuroides); assay: Test A postemergence application, visual injury rating 0-100
Outline: (§1)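 Directed preemergence spray onto seeded soil or postemergence spray onto 2-10 cm plants (loam plus sand); compound carried in surfactant-containing non-phytotoxic solvent. Injury rated by eye after 10 d greenhouse growth; 0 = no effect, 100 = complete control.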

[2] = system: galium (catchweed bedstraw, Galium aparine); assay: as above
Outline: as §1

[3] = system: oat, wild (wild oat, Avena fatua); assay: as above
Outline: as §1

[4] = system: green foxtail (Setaria viridis); assay: as above
Outline: as §1

[5] = system: barnyardgrass (Echinochloa crus-galli); assay: as above
Outline: as §1

[6] = system: wheat (Triticum aestivum); assay: as above
Outline: as §1

corn (Zea mays) [7] = assay: as above
Outline: as §1

soybean (Glycine max) [8] = assay: as above
Outline: as §1

[9] = system: ragweed (common ragweed, Ambrosia artemisiifolia); assay: as above
Outline: as §1

[10] = system: horseweed (Erigeron canadensis); assay: as above
Outline: as §1

[11] = system: ryegrass, Italian (italian ryegrass, Lolium multiflorum); assay: as above
Outline: as §1

[12] = system: palmer (palmer amaranth, palmer pigweed, Amaranthus palmeri); assay: as above
Outline: as §1

kochia (Bassia scoparia) [13] = assay: as above
Outline: as §1

rice (Oryza sativa) = assay: Test B flooded paddy test, visual plant response rating 0-100; settings: 250 g ai/ha, Flood, applied to paddy water, evaluated after 13 days
Outline: (§2)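 Visual scores versus untreated controls were recorded 13 days after treatment of greenhouse-held plants. At the 2-leaf stage, pots were flooded 3 cm above the soil surface and compounds added straight to the water.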

[14] = system: ducksalad (Heteranthera limosa); assay: as above; settings: 250 g ai/ha, Flood, applied to paddy water, evaluated after 13 days
Outline: as §2

[15] = system: sedge, umbrella (small-flower umbrella sedge, Cyperus difformis); assay: as above; settings: 250 g ai/ha, Flood, applied to paddy water, evaluated after 13 days
Outline: as §2

[16] = system: barnyardgrass (Echinochloa crusgalli); assay: as above; settings: 250 g ai/ha, Flood, applied to paddy water, evaluated after 13 days
Outline: as §2

[17] = system: blackgrass (Alopecurus myosuroides); assay: Test A preemergence soil spray, visual injury rating 0-100; settings: 10 days
Outline: as §1

[18] = system: oat, wild (wild oat, Avena fatua); assay: as above; settings: 10 days
Outline: as §1

[19] = system: green foxtail (Setaria viridis); assay: as above; settings: 10 days
Outline: as §1

[20] = system: barnyardgrass (Echinochloa crus-galli); assay: as above; settings: 10 days
Outline: as §1

[21] = system: wheat (Triticum aestivum); assay: as above; settings: 10 days
Outline: as §1

corn (Zea mays) [22] = assay: as above; settings: 10 days
Outline: as §1

soybean (Glycine max) [23] = assay: as above; settings: 10 days
Outline: as §1

[24] = system: ragweed (common ragweed, Ambrosia artemisiifolia); assay: as above; settings: 10 days
Outline: as §1

[25] = system: ryegrass, Italian (italian ryegrass, Lolium multiflorum); assay: as above; settings: 10 days
Outline: as §1

[26] = system: palmer (palmer amaranth, palmer pigweed, Amaranthus palmeri); assay: as above; settings: 10 days
Outline: as §1

kochia (Bassia scoparia) [27] = assay: as above; settings: 10 days
Outline: as §1

[28] = 62 g ai/ha, postemergence, 10 days, 0 = no effect, 100 = complete control
[29] = Postemergence, 16 g ai/ha, greenhouse 10 days, 0 no effect, 100 complete control
[30] = 62 g ai/ha, 0 = no effect, 100 = complete control

**Q.** How did the “Blackgrass plant response rating (0-100)” value [1, 28] turn out when `COC(=O)C1CC(NC(=O)C2(C)CN(c3cc(F)cc(F)c3)C(=O)O2)C1` (stereo not shown) [Compound 130] was run?
**A.** 90

**Q.** What about the “Blackgrass plant response rating (0 to 100 scale)” value [1, 29] of the same compound?
**A.** 90

**Q.** What about the “Galium plant response rating (0-100)” value [2, 28] of the same compound?
**A.** 90

**Q.** What about the “Galium plant response rating (0 to 100 scale)” value [2, 29] of the same compound?
**A.** 70

**Q.** And the “Oat, Wild plant response rating (0-100)” value [3, 28]?
**A.** 90

**Q.** What about the “Oat, Wild plant response rating (0 to 100 scale)” value [3, 29] of the same compound?
**A.** 90

**Q.** What about the “Foxtail, Green plant response rating (0-100)” value [4, 28] of the same compound?
**A.** 90

**Q.** What about the “Foxtail, Green plant response rating (0 to 100 scale)” value [4, 29] of the same compound?
**A.** 90

**Q.** And the “Barnyardgrass plant response rating (0-100)” value [5, 28]?
**A.** 80

**Q.** And the “Barnyardgrass plant response rating (0 to 100 scale)” value [5, 29]?
**A.** 70

**Q.** And the “Wheat plant response rating (0-100)” value [6, 28]?
**A.** 90

**Q.** And the “Wheat plant response rating (0 to 100 scale)” value [6, 29]?
**A.** 90

**Q.** What about the “Corn plant response rating (0-100)” value (corn (Zea mays) [7]; [28]) of the same compound?
**A.** 100

**Q.** What about the “Corn plant response rating (0 to 100 scale)” value (corn (Zea mays) [7]; [29]) of the same compound?
**A.** 100

**Q.** And the “Soybean plant response rating (0-100)” value (soybean (Glycine max) [8]; [28])?
**A.** 70

**Q.** And the “Soybean plant response rating (0 to 100 scale)” value (soybean (Glycine max) [8]; [29])?
**A.** 60

**Q.** And the “Ragweed plant response rating (0-100)” value [9, 28]?
**A.** 30

**Q.** What about the “Ragweed plant response rating (0 to 100 scale)” value [9, 29] of the same compound?
**A.** 20

**Q.** What about the “Horseweed plant response rating (0-100)” value [10, 28] of the same compound?
**A.** 30

**Q.** What about the “Horseweed plant response rating (0 to 100 scale)” value [10, 29] of the same compound?
**A.** 10

**Q.** And the “Ryegrass, Italian plant response rating (0-100)” value [11, 28]?
**A.** 90

**Q.** And the “Ryegrass, Italian plant response rating (0 to 100 scale)” value [11, 29]?
**A.** 70

**Q.** And the “Pigweed, Palmer plant response rating (0-100)” value [12, 28]?
**A.** 90

**Q.** What about the “Pigweed, Palmer plant response rating (0 to 100 scale)” value [12, 29] of the same compound?
**A.** 80

**Q.** What about the “Kochia plant response rating (0-100)” value (kochia (Bassia scoparia) [13]; [28]) of the same compound?
**A.** 90

**Q.** And the “Kochia plant response rating (0 to 100 scale)” value (kochia (Bassia scoparia) [13]; [29])?
**A.** 80

**Q.** And the “Plant response rating, Rice (0 to 100 scale, 0 is no effect and 100 is complete control)” value (rice (Oryza sativa))?
**A.** 60

**Q.** And the “Plant response rating, Ducksalad (0 to 100 scale, 0 is no effect and 100 is complete control)” value [14]?
**A.** 100

**Q.** And the “Plant response rating, Sedge, Umbrella (0 to 100 scale, 0 is no effect and 100 is complete control)” value [15]?
**A.** 90

**Q.** And the “Plant response rating, Barnyardgrass (0 to 100 scale, 0 is no effect and 100 is complete control)” value [16]?
**A.** 80

**Q.** What about the “Blackgrass plant response rating” value ([17]; 16 g ai/ha, 0 to 100 scale) of the same compound?
**A.** 70

**Q.** And the “Blackgrass plant response rating (0-100)” value [17, 30]?
**A.** 90

**Q.** And the “Oat, Wild plant response rating” value ([18]; 16 g ai/ha, 0 to 100 scale)?
**A.** 50

**Q.** What about the “Oat, Wild plant response rating (0-100)” value [18, 30] of the same compound?
**A.** 90

**Q.** What about the “Foxtail, Green plant response rating” value ([19]; 16 g ai/ha, 0 to 100 scale) of the same compound?
**A.** 50

**Q.** What about the “Foxtail, Green plant response rating (0-100)” value [19, 30] of the same compound?
**A.** 90

**Q.** And the “Barnyardgrass plant response rating” value ([20]; 16 g ai/ha, 0 to 100 scale)?
**A.** 0

**Q.** What about the “Barnyardgrass plant response rating (0-100)” value [20, 30] of the same compound?
**A.** 70

**Q.** And the “Wheat plant response rating” value ([21]; 16 g ai/ha, 0 to 100 scale)?
**A.** 90

**Q.** And the “Wheat plant response rating (0-100)” value [21, 30]?
**A.** 90

**Q.** What about the “Corn plant response rating” value (corn (Zea mays) [22]; 16 g ai/ha, 0 to 100 scale) of the same compound?
**A.** 10

**Q.** And the “Corn plant response rating (0-100)” value (corn (Zea mays) [22]; [30])?
**A.** 90

**Q.** What about the “Soybean plant response rating” value (soybean (Glycine max) [23]; 16 g ai/ha, 0 to 100 scale) of the same compound?
**A.** 0

**Q.** And the “Soybean plant response rating (0-100)” value (soybean (Glycine max) [23]; [30])?
**A.** 40

**Q.** What about the “Ragweed plant response rating” value ([24]; 16 g ai/ha, 0 to 100 scale) of the same compound?
**A.** 0

**Q.** What about the “Ragweed plant response rating (0-100)” value [24, 30] of the same compound?
**A.** 0

**Q.** What about the “Ryegrass, Italian plant response rating” value ([25]; 16 g ai/ha, 0 to 100 scale) of the same compound?
**A.** 40

**Q.** And the “Ryegrass, Italian plant response rating (0-100)” value [25, 30]?
**A.** 90

**Q.** What about the “Pigweed, Palmer plant response rating” value ([26]; 16 g ai/ha, 0 to 100 scale) of the same compound?
**A.** 10

**Q.** And the “Pigweed, Palmer plant response rating (0-100)” value [26, 30]?
**A.** 30

**Q.** What about the “Kochia plant response rating” value (kochia (Bassia scoparia) [27]; 16 g ai/ha, 0 to 100 scale) of the same compound?
**A.** 0

**Q.** And the “Kochia plant response rating (0-100)” value (kochia (Bassia scoparia) [27]; [30])?
**A.** 90

Reference: patent US20260285850A1, “SUBSTITUTED OXAZOLIDINONES AND IMIDAZOLINONES AS HERBICIDES” (FMC CORPORATION, priority 2023, published 2026)
